Calls of active or inactive are those of the source. The rule behind the calls is not given here.
How the values were obtained:
[1] = target: MAP kinase-interacting serine/threonine-protein kinase 1 (Homo sapiens, UniProt Q9BUB5); test: Inhibition of MKN1 (unknown origin) at 1 uM in presence of ATP by HTRF assay
MOLM-13 [2] = test: Induction of apoptosis in human MOLM-13 cells assessed as necrotic cells at 20 uM incubated for 12 hrs by annexin-V and propidium iodide staining based flow cytometry analysis (reference value: 0.06%); type: functional
MOLM-13 [3] = test: Induction of cell cycle arrest in human MOLM-13 cells assessed as sub-G1 phase at 40 uM incubated for 12 hr by propidium iodide based flow cytometry analysis (Rvb= 4.78%); type: functional
MOLM-13 [4] = test: Induction of apoptosis in human MOLM-13 cells assessed as live cells at 40 uM incubated for 12 hrs by annexin-V and propidium iodide staining based flow cytometry analysis (reference value: 91.49%); type: functional
MOLM-13 [5] = test: Induction of apoptosis in human MOLM-13 cells assessed as late apoptotic cells at 20 uM incubated for 12 hrs by annexin-V and propidium iodide staining based flow cytometry analysis (reference value: 3.03%); type: functional
MOLM-13 [6] = test: Induction of cell cycle arrest in human MOLM-13 cells assessed as sub-G1 phase at 20 uM incubated for 12 hr by propidium iodide based flow cytometry analysis (Rvb= 4.78%); type: functional
MOLM-13 [7] = test: Induction of apoptosis in human MOLM-13 cells assessed as live cells at 20 uM incubated for 12 hrs by annexin-V and propidium iodide staining based flow cytometry analysis (reference value: 91.49%); type: functional
MOLM-13 [8] = test: Induction of apoptosis in human MOLM-13 cells assessed as early apoptotic cells at 40 uM incubated for 12 hrs by annexin-V and propidium iodide staining based flow cytometry analysis (reference value: 5.40%); type: functional
MOLM-13 [9] = test: Induction of apoptosis in human MOLM-13 cells assessed as early apoptotic cells at 20 uM incubated for 12 hrs by annexin-V and propidium iodide staining based flow cytometry analysis (reference value: 5.40%); type: functional
MOLM-13 [10] = test: Downregulation of cyclin-D1 levels in human MOLM-13 cells at 20 to 40 uM incubated for 12 hrs by western blot analysis; type: functional, cell-based; conditions: dose 20-40 µM
MOLM-13 [11] = test: Induction of apoptosis in human MOLM-13 cells assessed as late apoptotic cells at 40 uM incubated for 12 hrs by annexin-V and propidium iodide staining based flow cytometry analysis (reference value: 3.03%); type: functional
[12] = target: T1, Serine/threonine-protein kinase PIM (Homo sapiens) (UniProt P11309+Q9P1W9+Q86V86); test: Inhibition of PIM in human MOLM-13 cells assessed as reduction in phosphorylated 4EBP1 at 20 to 40 uM incubated for 12 hrs by western blot analysis; type: cell-based; conditions: dose 20-40 µM
MOLM-13 [13] = test: Induction of apoptosis in human MOLM-13 cells assessed as necrotic cells at 40 uM incubated for 12 hrs by annexin-V and propidium iodide staining based flow cytometry analysis (reference value: 0.06%); type: functional
MOLM-13 [14] = test: Downregulation of mcl-1 levels in human MOLM-13 cells at 20 to 40 uM incubated for 12 hrs by western blot analysis; type: functional, cell-based; conditions: dose 20-40 µM
MOLM-13 [15] = test: Antiproliferative activity against human MOLM13 cells assessed as reduction of cell viability incubated for 72 hrs by trypan blue staining based cell counting analysis; type: functional
MOLM-13 [16] = test: Induction of cell cycle arrest in human MOLM-13 cells assessed as G1 phase at 20 uM incubated for 12 hr by propidium iodide based flow cytometry analysis (Rvb= 51.29%); type: functional
MOLM-13 [17] = test: Induction of cell cycle arrest in human MOLM-13 cells assessed as G1 phase at 40 uM incubated for 12 hr by propidium iodide based flow cytometry analysis (Rvb= 51.29%); type: functional
MOLM-13 [18] = test: Downregulation of c-myc levels in human MOLM-13 cells at 20 to 40 uM incubated for 12 hrs by western blot analysis; type: functional, cell-based; conditions: dose 20-40 µM
[19] = target: T1, Serine/threonine-protein kinase PIM (Homo sapiens); test: Inhibition of PIM in human MOLM-13 cells assessed as reduction of BAD phosphorylation at 20 to 40 uM incubated for 12 hrs by western blot analysis; type: cell-based; conditions: dose 20-40 µM
K562 = test: Antiproliferative activity against human K562 cells assessed as reduction of cell viability incubated for 72 hrs by trypan blue staining based cell counting analysis; type: functional
HL-60 = test: Antiproliferative activity against human HL-60 cells assessed as reduction of cell viability incubated for 72 hrs by trypan blue staining based cell counting analysis; type: functional

T1 sequence (P11309 whole entry, looked up): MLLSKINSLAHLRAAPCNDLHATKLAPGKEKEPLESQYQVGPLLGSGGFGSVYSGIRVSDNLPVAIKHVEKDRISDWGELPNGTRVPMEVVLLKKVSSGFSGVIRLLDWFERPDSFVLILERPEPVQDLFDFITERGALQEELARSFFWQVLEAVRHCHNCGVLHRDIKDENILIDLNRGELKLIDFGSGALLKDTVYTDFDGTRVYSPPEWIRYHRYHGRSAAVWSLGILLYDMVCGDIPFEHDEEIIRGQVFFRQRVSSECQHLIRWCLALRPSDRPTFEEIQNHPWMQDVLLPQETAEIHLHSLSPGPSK
T1 sequence (Q9P1W9 whole entry, looked up): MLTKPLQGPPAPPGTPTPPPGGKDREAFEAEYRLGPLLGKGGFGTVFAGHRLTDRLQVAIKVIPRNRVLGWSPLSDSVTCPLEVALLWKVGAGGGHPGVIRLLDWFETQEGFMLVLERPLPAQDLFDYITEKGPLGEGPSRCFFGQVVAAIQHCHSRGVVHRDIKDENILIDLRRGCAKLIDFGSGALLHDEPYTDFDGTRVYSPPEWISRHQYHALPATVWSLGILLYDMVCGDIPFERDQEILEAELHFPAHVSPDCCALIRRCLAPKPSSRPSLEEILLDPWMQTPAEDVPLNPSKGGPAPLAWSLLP
MAP kinase-interacting serine/threonine-protein kinase 1, sequence (Q9BUB5 whole entry, looked up): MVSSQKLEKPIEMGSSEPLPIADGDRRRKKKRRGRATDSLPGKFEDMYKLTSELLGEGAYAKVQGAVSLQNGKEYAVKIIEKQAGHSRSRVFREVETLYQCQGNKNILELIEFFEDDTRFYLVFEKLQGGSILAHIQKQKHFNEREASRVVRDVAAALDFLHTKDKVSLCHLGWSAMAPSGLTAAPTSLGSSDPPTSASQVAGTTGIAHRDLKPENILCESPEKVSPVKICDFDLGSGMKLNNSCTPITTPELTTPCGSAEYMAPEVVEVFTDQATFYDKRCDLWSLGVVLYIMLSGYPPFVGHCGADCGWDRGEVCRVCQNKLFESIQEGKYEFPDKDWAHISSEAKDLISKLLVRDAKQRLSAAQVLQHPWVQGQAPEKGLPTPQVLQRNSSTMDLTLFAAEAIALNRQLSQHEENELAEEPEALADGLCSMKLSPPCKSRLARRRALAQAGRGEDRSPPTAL

inhibition [1]: 78%
inhibition [12]: Active
GI50 (MOLM-13 [15]): 9.88 µM
inhibition [19]: inactive
GI50 (K562): 28.8 µM
GI50 (HL-60): 7.26 µM
SMILES: Nc1ncnc2[nH]nc(Nc3ccc(F)cc3)c12
Activity (MOLM-13 [2]): 0.04%
Activity (MOLM-13 [3]): 12.28%
Activity (MOLM-13 [4]): 83.9%
Activity (MOLM-13 [5]): 3.05%
Activity (MOLM-13 [6]): 8.3%
Activity (MOLM-13 [7]): 86.89%
Activity (MOLM-13 [8]): 13.19%
Activity (MOLM-13 [9]): 9.93%
Activity (MOLM-13 [10]): Active
Activity (MOLM-13 [11]): 2.73%
Activity (MOLM-13 [13]): 0.18%
Activity (MOLM-13 [14]): Active
Activity (MOLM-13 [16]): 65.2%
Activity (MOLM-13 [17]): 62.49%
Activity (MOLM-13 [18]): Active

— ChEMBL document CHEMBL4825757, “Optimization of 4,6-Disubstituted Pyrido[3,2-d]pyrimidines as Dual MNK/PIM Inhibitors to Inhibit Leukemia Cell Growth” (J Med Chem, 2021)
